One test concerns PKH26-labeled LLC cells. The test can be described thus: Lung dissemination of PKH26-labeled LLC cells in TCM-sensitized mice. In kind it is in vivo, C57BL/6J mice. The conditions noted are these: 10 mg/kg i.p. 1 h before last TCM injection; lungs 16 h after cells; 5–6 mice per group; *P < 0.05 vs control.
In the next test the test system is LLC tumor. The test is described as follows: Tumor growth in LLC tumor-bearing mice. To be noted: *P < 0.05 vs control; for LLC tumor growth, monotherapy: 10 mg/kg i.p. every 3 days, five mice per group.

Entries after “also recorded” stand apart in the source; their conditions may differ.

Description for LLC tumor: Balb nu/nu or C57BL/6J mice were purchased from Clea Japan Inc. (Tokyo, Japan). Mice were used for experiments at 2–3 months of age. For SW480 transplanted xenograft model, SW480 cells were subcutaneously implanted into male Balb nu/nu mice. […] For generation of the Lewis lung cancer implantation mouse model, LLC cells were subcutaneously implanted into male C57BL/6J mice. […] Anti-PD-1 antibodies (Biolegend, San Diego, CA, USA) were used for combination therapy. To determine the tumor volume, the longitudinal diameter (length) and transverse diameter (width) were determined. Tumor volume based on measurements by Vernier calipers was calculated as tumor volume = ½ (length × width^2). For in vivo S100A8 stimulation, C57BL/6J mice were intravenously injected with mammalian-derived S100A8. Four hours after the i.v. injection, mice were sacrificed, and minced mouse lungs were digested with collagenase/dispase/DNase solution. Collected cells were incubated with anti-CD11b-PE (BD Bioscience), anti-Ly6G-FITC (BD Bioscience), and anti-Ly6C-APC (BD Bioscience) antibodies, and analyzed by a flow cytometry (Cytomics FC500; Beckman Coulter, Brea, CA, USA). […] After 24 h, PKH26 (Sigma-Aldrich)-fluorescent-labeled LLC cells were intravenously injected into TCM-stimulated C57BL6J mice. The mice were sacrificed after 16 h, and minced mouse lungs were digested with collagenase/dispase/DNase solution. The recruitment of MDSCs or PKH-26 labeled tumor cells in the lungs was determined by flow cytometry (CytoFlex; Beckman Coulter).
Briefly, LLC cells were implanted s.c. into C57BL/6 J mice. […] Tumor volumes for individual mice were determined at the indicated time points. Each group included five mice. […] Tumor size was determined at the indicated time points. […] Each group included 5–6 mice. The mice were administered tumor conditioned medium once daily for five consecutive days. […] The PKH-26 labeled LLC tumor cells were injected intravenously, the mice were sacrificed, and the cell number was analyzed after 16 h. Each group included 5–6 mice.

For FQEFAILVIK [Divalent peptide3A5], the “pulmonary recruitment of PKH26-labeled LLC cells / lung metastasis” value with PKH26-labeled LLC cells was “suppresses the pulmonary recruitment of PKH26-labeled LLC cells”. In addition, the “LLC tumor growth, monotherapy” value is reported as “suppresses tumor progression” in the test with LLC tumor and “inhibited in vivo tumor growth; also recorded: suppressed tumor growth in tumor-bearing mice” with LLC tumor (listed as divalent peptide3A5). Moreover, in the test on LLC tumor (with anti-PD-1 every 3 days, 5–6 mice per group), the “LLC tumor, combination with anti-PD-1 antibody” value is on record as “improved the efficacy of anti-programmed death (PD)1 antibody; also recorded: increased the efficacy of anti-PD-1 therapy”.
